From patent US7785585B2, “Compositions comprising sclareol or derivatives thereof and uses thereof” (Avoca, Inc., priority 2004, dated 2010)

System: Human subcutaneous preadipocytes
Assay: Lipolysis assay (glycerol release) in differentiated human subcutaneous preadipocytes
Type: cell-based
Experimental: Human subcutaneous preadipocytes were obtained from human patients undergoing liposuction and pooled. The characteristics of the patients are shown below: • Sex: F • B.M.I.: 27.25 (avg.) • AGE: 43 (avg.) The human subcutaneous preadiposytes were designated lot #SL0028.
Preadipocytes were plated in 96-well plates and allowed to differentiate in the absence of compounds (e.g., sclareolide or sclareolide+GPM) for about two weeks. On the day of the assay, the culture medium was removed and the cells were washed gently with Krebs-Ringer buffer (KRB) in the following manner. 120 μl of medium in the wells was removed and 200 μl/well of KRB was added. The KRB in the wells was removed and another aliquot of 200 μl/well of the KRB was added. The wells were washed one row at a time to ensure that the cells remained moist and stayed attached to the plate.
Next, all of the KRB was removed and the cells were treated with 150 μl/well of the controls or 150 μl/well of the test compounds (resuspended in KRB with 1% BSA), either 1) sclareolide at […] or 2) sclareolide plus GPM at […], and incubated at 37° C. for five hours. The assay was performed in triplicate.
At the end of the treatment, 100 μl/well of the conditioned media was removed from the assay plate and added to the corresponding well of a new plate. […]
The optical density of each well of the new plate was measured at 540 nm.

CC1(C)CCC[C@]2(C)[C@H]3CC(=O)O[C@]3(C)CC[C@@H]12 [Sclareolide]
% Increase in Lipolysis over Control (Sclareolide concentration 10 μg/ml, 37° C. for five hours, glycerol assay, OD 540 nm, triplicate): 55% | Lipolysis over the control (in words) (sclareolide 10 μg/ml, sclareolide+GPM 7.5 μg/ml, five hours): significantly increased lipolysis over the control
